Test results published in patent US8008299B2, “Urotensin II receptor antagonists” (Janssen Pharmaceutica, N.V., priority 2007, dated 2011).
Like-named read-outs stand apart in the source and are kept apart here.

Legend:
[1] = target: T1, Human UII (U-II receptor) in 6D9 human rhabdomyosarcoma cells (Homo sapiens, UniProt Q9UKP6); assay: Human UII Calcium Mobilization Assay; type: cell-based
T1 construct: 6D9: isolated by dilution subcloning of RMS13 cells, ATCC® Number: CRL-2061; host or cells: 6D9 human rhabdomyosarcoma cells (subclone of RMS13)
T1 sequence (Q9UKP6 1-389): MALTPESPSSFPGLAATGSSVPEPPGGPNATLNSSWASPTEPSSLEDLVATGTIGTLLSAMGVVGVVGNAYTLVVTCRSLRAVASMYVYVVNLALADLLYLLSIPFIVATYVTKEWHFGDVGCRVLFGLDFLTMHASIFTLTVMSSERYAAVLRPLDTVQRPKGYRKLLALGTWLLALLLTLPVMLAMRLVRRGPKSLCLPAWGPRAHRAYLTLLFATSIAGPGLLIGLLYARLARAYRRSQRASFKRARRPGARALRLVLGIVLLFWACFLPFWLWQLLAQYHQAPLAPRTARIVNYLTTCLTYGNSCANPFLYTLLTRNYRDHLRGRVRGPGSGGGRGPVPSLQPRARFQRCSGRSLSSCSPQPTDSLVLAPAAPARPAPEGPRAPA

[2] = target: T2, UT receptors in HSMM (Human Skeletal Muscle Myoblasts) (Homo sapiens, UniProt Q9UKP6); assay: Human Radioligand Binding Assay ((^125I)-U-II binding to intact HSMM)
T2 sequence (Q9UKP6 1-389): T1 sequence (Q9UKP6 1-389)

[3] = target: T3, rat GPR14 (U-II receptor) (Rattus norvegicus, UniProt P49684); assay: Rat UII Calcium Mobilization FLIPR Assay; type: cell-based; settings: CHO cells transfected with rat GPR14; antagonist activity after 5 min incubation vs agonist (Ac)-CFWK(2-NaI)C-NH2 at 1 nM
T3 construct: expressed in transfected cells
T3 sequence (P49684 1-386): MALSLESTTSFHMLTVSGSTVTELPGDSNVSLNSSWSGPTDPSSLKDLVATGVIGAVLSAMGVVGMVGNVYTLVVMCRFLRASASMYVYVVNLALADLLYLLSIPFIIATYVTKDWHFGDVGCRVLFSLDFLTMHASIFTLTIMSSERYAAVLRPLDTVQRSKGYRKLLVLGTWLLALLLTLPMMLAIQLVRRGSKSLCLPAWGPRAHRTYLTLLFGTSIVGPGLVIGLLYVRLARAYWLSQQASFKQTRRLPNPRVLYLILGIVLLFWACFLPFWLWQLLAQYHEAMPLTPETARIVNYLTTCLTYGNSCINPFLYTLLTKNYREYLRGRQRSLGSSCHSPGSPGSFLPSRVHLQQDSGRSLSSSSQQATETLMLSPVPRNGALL
In short: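 Fluorescent calcium signals were recorded at room temperature (23° C) by FLIPR. Stable rat U-II receptor CHO lines had been dye-loaded for 1 h at 37° C in pH 7.4 HBSS containing 20 mM HEPES, 0.1% BSA and 2.5 mM probenecid.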

[4] = 6D9 human rhabdomyosarcoma cells, FLIPR TETRA, average, read-out: Human UII Ca+ Mobilization Average IC50

SMILES	IC50 [1, 4] [nM]	Ki [2] [nM]	IC50 [3] [nM]	Ki ([2]; read-out: Human UII Average Binding Ki, intact HSMM, 0.150 nM (^125I)-U-II, 3 h, 25° C.) [nM]	IC50 [1] [nM]
CCN1CCN(c2cccc3c2CN([C@H](CCCn2cc(C)nc2C)c2ccc(OC)c(OC)c2)C3=O)CC1 [Cpd 102, 2-[(1R)-1-(3,4-dimethoxy-phenyl)-4-(2,4-dimethyl-imidazol-1-yl)-butyl]-4-(4-ethyl-piperazin-1-yl)-2,3-dihydro-isoindol-1-one]	1280	> 300	93	–	–
CCN1CCN(c2cccc3c2CN(C(c2ccc(OC)c(OC)c2)C2CCN(S(=O)(=O)c4cn(C)c(C)n4)CC2)C3=O)CC1 (stereo not drawn) [Cpd 44, 2-{(3,4-dimethoxy-phenyl)-[1-(1,2-dimethyl-1H-imidazole-4-sulfonyl)-piperidin-4-yl]-methyl}-4-(4-ethyl-piperazin-1-yl)-2,3-dihydro-isoindol-1-one]	3060	> 300	7330	–	–
CCN1CCN(c2cccc3c2CN([C@H](CCCNS(=O)(=O)c2cccs2)c2ccc(OC)c(OC)c2)C3=O)CC1 [Cpd 84, thiophene-2-sulfonic acid {(4R)-4-(3,4-dimethoxy-phenyl)-4-[4-(4-ethyl-piperazin-1-yl)-1-oxo-1,3-dihydro-isoindol-2-yl]-butyl}-amide]	8	–	1	4	–
CCN1CCN(c2cccc3c2CN(C(c2cccc(NS(=O)(=O)c4cccs4)c2)c2ccc(OC)c(OC)c2)C3=O)CC1 (stereo not drawn) [Cpd 16, thiophene-2-sulfonic acid (3-{(3,4-dimethoxy-phenyl)-[4-(4-ethyl-piperazin-1-yl)-1-oxo-1,3-dihydro-isoindol-2-yl]-methyl}-phenyl)-amide]	1270	66	31	–	–
COc1ccc([C@@H](CCCNc2nccc(C(F)(F)F)n2)N2Cc3c(cccc3N3CCN(C4CC4)CC3)C2=O)cc1OC [Cpd 4, 4-(4-cyclopropyl-piperazin-1-yl)-2-[(1R)-1-(3,4-dimethoxy-phenyl)-4-(4-trifluoromethyl-pyrimidin-2-ylamino)-butyl]-2,3-dihydro-isoindol-1-one]	7010	> 300	1700	–	–
CCN(CC)CCC[C@H](c1ccc(OC)c(OC)c1)N1Cc2c(cccc2N2CCN(CC)CC2)C1=O [Cpd 68, 2-[(1R)-4-diethylamino-1-(3,4-dimethoxy-phenyl)-butyl]-4-(4-ethyl-piperazin-1-yl)-2,3-dihydro-isoindol-1-one]	2040	> 300	178	–	–
CCN1CCN(c2cccc3c2CN([C@H](CCCNc2c(N)c(=O)c2=O)c2ccc(OC)c(OC)c2)C3=O)CC1 [Cpd 76, 3-amino-4-{(4R)-4-(3,4-dimethoxy-phenyl)-4-[4-(4-ethyl-piperazin-1-yl)-1-oxo-1,3-dihydro-isoindol-2-yl]-butylamino}-cyclobut-3-ene-1,2-dione]	674	33	46	–	–
CCN1CCN(c2cccc3c2CN([C@H](CCCOCc2c(F)cccc2F)c2ccc(OC)c(OC)c2)C3=O)CC1 [Cpd 46, 2-[(1R)-4-(2,6-difluoro-benzyloxy)-1-(3,4-dimethoxy-phenyl)-butyl]-4-(4-ethyl-piperazin-1-yl)-2,3-dihydro-isoindol-1-one]	> 10000	> 300	7730	–	–
COc1ccc([C@@H](CCCNC(=O)c2cnoc2C)N2Cc3c(cccc3N3CCN(C(C)c4ccccc4)CC3)C2=O)cc1OC (stereo partly drawn) [Cpd 85, 5-methyl-isoxazole-4-carboxylic acid ((4R)-4-(3,4-dimethoxy-phenyl)-4-{1-oxo-4-[4-(1-phenyl-ethyl)-piperazin-1-yl]-1,3-dihydro-isoindol-2-yl}-butyl)-amide]	–	15	6	–	325
CCN1CCN(c2cccc3c2CN([C@H](CCCn2cnnn2)c2ccc(OC)c(OC)c2)C3=O)CC1 [Cpd 14, 2-[(1R)-1-(3,4-dimethoxy-phenyl)-4-tetrazol-1-yl-butyl]-4-(4-ethyl-piperazin-1-yl)-2,3-dihydro-isoindol-1-one]	1390	129	31	–	–
COc1ccc([C@@H](CCCN(C)c2ccccc2)N2Cc3c(cccc3N3CCNCC3)C2=O)cc1OC [Cpd 33, 2-[(1R)-1-(3,4-dimethoxy-phenyl)-4-(methyl-phenyl-amino)-butyl]-4-piperazin-1-yl-2,3-dihydro-isoindol-1-one]	4680	520	307	–	–

Continued, in another order:

IC50 [1, 4] [nM]	Ki [2] [nM]	IC50 [3] [nM]	SMILES	Ki ([2]; read-out: Human UII Average Binding Ki, intact HSMM, 0.150 nM (^125I)-U-II, 3 h, 25° C.) [nM]	IC50 [1] [nM]
316	13	19	CCN1CCN(c2cccc3c2CN([C@H](CCCNc2nccc(C)n2)c2ccc(OC)c(OC)c2)C3=O)CC1 [Cpd 23, 2-[(1R)-1-(3,4-dimethoxy-phenyl)-4-(4-methyl-pyrimidin-2-ylamino)-butyl]-4-(4-ethyl-piperazin-1-yl)-2,3-dihydro-isoindol-1-one]	–	–
482	23	7	CCN1CCN(c2cccc3c2CN([C@H](CCCOc2ccccc2)c2ccc(OC)c(OC)c2)C3=O)CC1 [Cpd 50, 2-[(1R)-1-(3,4-dimethoxy-phenyl)-4-phenoxy-butyl]-4-(4-ethyl-piperazin-1-yl)-2,3-dihydro-isoindol-1-one]	–	–
133	39	6	CCN1CCN(c2cccc3c2CN([C@H](CCCNC(=O)c2cn[nH]c2)c2ccc(OC)c(OC)c2)C3=O)CC1 [Cpd 79, 1H-pyrazole-4-carboxylic acid {(4R)-4-(3,4-dimethoxy-phenyl)-4-[4-(4-ethyl-piperazin-1-yl)-1-oxo-1,3-dihydro-isoindol-2-yl]-butyl}-amide]	–	–
380	56	14	CCN1CCN(c2cccc3c2CN([C@H](CCCn2cnc4ccccc42)c2ccc(OC)c(OC)c2)C3=O)CC1 [Cpd 29, 2-[(1R)-4-benzoimidazol-1-yl-1-(3,4-dimethoxy-phenyl)-butyl]-4-(4-ethyl-piperazin-1-yl)-2,3-dihydro-isoindol-1-one]	–	–
71	34	4	CCN1CCN(c2cccc3c2CN([C@H](CCCN(C)Cc2ccccc2)c2ccc(OC)c(OC)c2)C3=O)CC1 [Cpd 3, 2-[(1R)-4-(benzyl-methyl-amino)-1-(3,4-dimethoxy-phenyl)-butyl]-4-(4-ethyl-piperazin-1-yl)-2,3-dihydro-isoindol-1-one]	–	–
56	26	4	CCN1CCN(c2cccc3c2CN([C@H](CCCN(C)Cc2ccccc2F)c2ccc(OC)c(OC)c2)C3=O)CC1 [Cpd 97, 2-{(1R)-1-(3,4-dimethoxy-phenyl)-4-[(2-fluoro-benzyl)-methyl-amino]-butyl}-4-(4-ethyl-piperazin-1-yl)-2,3-dihydro-isoindol-1-one]	–	–
168	34	6	CCN1CCN(c2cccc3c2CN([C@H](CCCN(Cc2ccc(F)cc2)C2CC2)c2ccc(OC)c(OC)c2)C3=O)CC1 [Cpd 90, 2-[(1R)-4-[cyclopropyl-(4-fluoro-benzyl)-amino]-1-(3,4-dimethoxy-phenyl)-butyl]-4-(4-ethyl-piperazin-1-yl)-2,3-dihydro-isoindol-1-one]	–	–
628	77	81	CCN1CCN(c2cccc3c2CN([C@H](CCCNC(=O)c2ccncc2)c2ccc(OC)c(OC)c2)C3=O)CC1 [Cpd 54, N-{(4R)-4-(3,4-dimethoxy-phenyl)-4-[4-(4-ethyl-piperazin-1-yl)-1-oxo-1,3-dihydro-isoindol-2-yl]-butyl}-isonicotinamide]	–	–
152	69	15	CCN1CCN(c2cccc3c2CN([C@H](CCCN(Cc2ccccc2)C(C)C)c2ccc(OC)c(OC)c2)C3=O)CC1 [Cpd 96, 2-[(1R)-4-(benzyl-isopropyl-amino)-1-(3,4-dimethoxy-phenyl)-butyl]-4-(4-ethyl-piperazin-1-yl)-2,3-dihydro-isoindol-1-one]	–	–
204	55	7	CCN1CCN(c2cccc3c2CN([C@H](CCCN(C)S(=O)(=O)N(C)C)c2ccc(OC)c(OC)c2)C3=O)CC1 [Cpd 1, dimethylaminosulfonic acid {(4R)-4-(3,4-dimethoxy-phenyl)-4-[4-(4-ethyl-piperazin-1-yl)-1-oxo-1,3-dihydro-isoindol-2-yl]-butyl}-methyl-amide]	–	–
